In patent US20080255084A1, “Combination of Organic Compounds” (priority 2005, published 2008):

How the values were obtained:
[1] = in vivo; cited from earlier work
mouse renin = assay: renin inhibitory potency against mouse renin; assay type: biochemical; details: compared with human renin
rat renin = target: T1, rat renin (Rattus norvegicus, UniProt P08424); assay: renin inhibitory potency against rat renin; assay type: biochemical; details: loss of potency against rat renin
T1 sequence (P08424 65-402): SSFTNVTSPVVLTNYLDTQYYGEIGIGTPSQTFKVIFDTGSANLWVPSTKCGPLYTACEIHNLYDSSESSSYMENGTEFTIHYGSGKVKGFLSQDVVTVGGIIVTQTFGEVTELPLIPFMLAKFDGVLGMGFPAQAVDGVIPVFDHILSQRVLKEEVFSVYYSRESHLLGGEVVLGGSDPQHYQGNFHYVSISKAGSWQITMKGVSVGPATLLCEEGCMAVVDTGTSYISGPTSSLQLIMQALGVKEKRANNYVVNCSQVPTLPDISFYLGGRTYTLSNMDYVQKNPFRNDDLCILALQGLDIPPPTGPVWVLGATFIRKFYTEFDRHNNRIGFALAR

dog renin = target: T2, dog renin (Canis lupus familiaris, UniProt Q6DYE7); assay: renin inhibitory potency against dog renin; assay type: biochemical; details: compared with human renin
T2 sequence (Q6DYE7 66-403): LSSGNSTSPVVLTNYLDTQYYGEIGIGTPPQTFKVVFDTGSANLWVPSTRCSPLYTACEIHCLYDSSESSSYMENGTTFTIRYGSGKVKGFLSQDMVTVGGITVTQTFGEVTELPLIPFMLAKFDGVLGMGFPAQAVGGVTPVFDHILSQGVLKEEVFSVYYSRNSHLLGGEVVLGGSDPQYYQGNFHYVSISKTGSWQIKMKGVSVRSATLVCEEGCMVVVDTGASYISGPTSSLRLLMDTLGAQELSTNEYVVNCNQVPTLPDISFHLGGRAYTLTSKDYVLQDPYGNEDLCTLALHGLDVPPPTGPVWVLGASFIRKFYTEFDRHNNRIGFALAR

NS(=O)(=O)Cc1noc2ccccc12 [Zonisamide]
effect on weight loss [1]: lead to weight loss

COCCCOc1cc(C[C@@H](C[C@H](N)[C@@H](O)C[C@H](C(=O)NCC(C)(C)C(N)=O)C(C)C)C(C)C)ccc1OC [aliskiren, 2(S),4 (S),5(S),7(S)—N-(3-amino-2,2-dimethyl-3-oxopropyl)-2,7-di(1-methylethyl)-4-hydroxy-5-amino-8-[4-methoxy-3-(3-methoxy-propoxy)phenyl]-octanamide]
potency against mouse renin (mouse renin): reasonable potency | weaker as a rat renin inhibitor (rat renin): 1-2 orders of magnitude | potency against dog renin (dog renin): reasonable potency

CC1(C)O[C@@H]2[C@@H](CO[C@@]3(COS(N)(=O)=O)OC(C)(C)O[C@@H]23)O1 [Topiramate]
effect on weight loss [1]: increase weight loss
